Converted amounts (≈) assume the structure as drawn.
Test system: Candida albicans
Assay: Antifungal activity Candida albicans CMCC(F) 98001 assessed as inhibition of fungal growth incubated for 24 hrs by broth micro dilution method
Assay type: functional

| SMILES | MIC [µg/mL] |
| --- | --- |
| C\C1=C/C=C/C=C/C=C/C=C/C[C@@H](C)OC(=O)C[C@@H](O)C[C@@H](O)C[C@@H](O)C[C@@H](O)C[C@@H](O)C[C@@H]1O | > 12.5 |
| C\C1=C/C=C/C=C/C=C/C=C/[C@H](O)[C@@H](C)OC(=O)[C@H](CCCC(C)C)[C@@H](O)C[C@@H](O)C[C@@H](O)C[C@@H](O)C[C@@H](O)C[C@@H](O)C[C@@H]1O | 1.56 (≈ 2.44 µM) |
| CCCCCC[C@@H]1CC[C@@H](O)C[C@@H](O)C[C@@H](O)C[C@@H](O)C[C@@H](O)C[C@@H](O)C[C@H](O)/C(C)=C/C=C/C=C/C=C/C=C/[C@H](O)[C@@H](C)OC1=O | > 12.5 |
| CCCC[C@H]1C(=O)O[C@H](C)[C@@H](O)/C=C/C=C/C=C/C=C/C=C(\C)[C@@H](O)C[C@H](O)C[C@H](O)C[C@H](O)C[C@H](O)C[C@H](O)C[C@@H]1O | 6.25 (≈ 10.2 µM) |
| C\C1=C/C=C/C=C/C=C/C=C/C[C@@H](C)OC(=O)C[C@@H](O)C[C@@H](O)C[C@@H](O)C[C@@H](O)C[C@@H](O)C[C@@H](O)C[C@@H]1O | > 12.5 |
| CCCCC[C@H]1C(=O)O[C@H](C)[C@@H](O)/C=C/C=C/C=C/C=C/C=C(\C)[C@@H](O)C[C@H](O)C[C@H](O)C[C@H](O)C[C@H](O)C[C@H](O)C[C@@H]1O | 3.13 (≈ 5.01 µM) |
| C[C@@H]1C/C=C/C=C/C=C/C=C/C=C/[C@@H](O)C[C@H](O)C[C@H](O)C[C@H](O)C[C@H](O)C[C@H](O)C[C@H](O)CC(=O)O1 | > 12.5 |
| C\C1=C/C=C/C=C/C=C/C=C/[C@H](O)[C@@H](C)OC(=O)[C@H](CCC(C)C)[C@@H](O)C[C@@H](O)C[C@@H](O)C[C@@H](O)C[C@@H](O)C[C@@H](O)C[C@@H]1O | 3.13 (≈ 5.01 µM) |
| CCCCCC[C@H]1C(=O)O[C@H](C)[C@@H](O)/C=C/C=C/C=C/C=C/C=C(\C)[C@@H](O)C[C@H](O)C[C@H](O)C[C@H](O)C[C@H](O)C[C@H](O)C[C@@H]1O | 1.56 (≈ 2.44 µM) |
| C\C1=C/C=C/C=C/C=C/C=C/[C@H](O)[C@@H](C)OC(=O)C[C@@H](O)C[C@@H](O)C[C@@H](O)C[C@@H](O)C[C@@H](O)C[C@@H](O)C[C@@H]1O | > 12.5 |
| CC(C)CC[C@H]1C(=O)O[C@H](C)[C@@H](O)/C=C/C=C/C=C/C=C/C=C/[C@@H](O)C[C@H](O)C[C@H](O)C[C@H](O)C[C@H](O)C[C@H](O)C[C@@H]1O | > 12.5 |
| C[C@@H]1[C@H](O)[C@@H](C)/C=C/C=C/C=C/C=C/C=C/C=C/C=C/[C@H](O[C@@H]2O[C@H](C)[C@@H](O)[C@H](N)[C@@H]2O)C[C@@H]2O[C@](O)(C[C@@H](O)C[C@@H](O)[C@H](O)CC[C@@H](O)C[C@@H](O)CC(=O)O[C@H]1C)C[C@H](O)[C@H]2C(=O)O [AMPHOTERICIN B] | 0.2 (≈ 0.216 µM) |
| CCCCC[C@@H](O)[C@H]1C(=O)O[C@H](C)[C@@H](O)/C=C/C=C/C=C/C=C/C=C(\C)[C@@H](O)C[C@H](O)C[C@H](O)C[C@H](O)C[C@H](O)C[C@H](O)C[C@@H]1O [FILIPIN] | 12.5 (≈ 19.1 µM) |

From ChEMBL document CHEMBL5143582, “Genome-Guided Discovery of Antifungal Filipins from a Deep-Sea-Derived Streptomyces antibioticus” (2022)
